Measurements from patent US20220152093A1, “OPTIMIZED NUTRIENT SALT COMPOSITION” (priority 2018, published 2022).

System: tender mangoes
Test: Preservation of tender mangoes in salt solution, 45 days at room temperature
Details: common salt solution 2.5%, optimized nutrient salt solution 5% (matching saltiness), 25 to 35 degree centigrade
Description: Two sets of 1000 gm tender mangoes were put in two separate sterile glass bottles. First bottle was filled with common salt solution up to the neck of the bottle and the second bottle was filled with optimized nutrient salt solution prepared by a process as given in example 1 of matching saltiness. Saltiness of optimized nutrient salt is only half of common salt. While the common salt solution used was 2.5% and the optimized nutrient salt solution was 5%. Bottle closed with cap and kept for seasoning for 45 days in room temperature around 25 to 35 degree centigrade.

Compound: [Cl-].[Na+] [common salt]
- fungal growth at the surface of the solution: thin layer of fungal growth
